Test results: patent publication US4115385A, “Antibacterial 3-(5-tetrazolyl) penam compounds” (Pfizer Inc., priority 1977, dated 1978)
Converted amounts (≈) assume the structure as drawn.

tested on: Streptococcus pyogenes; experiment: In vitro minimum inhibitory concentration (MIC) vs. Strep. pyogenes; format: cell-based; conditions: Examples
Method in brief: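 Broth inoculated with bacteria and test antibiotic, incubated overnight and read visually; MIC is the lowest concentration preventing turbidity. Test preparations also contain some of the corresponding tetrazole tautomer.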

| Compound | MIC against Strep. pyogenes |
| --- | --- |
| 6-(2-Phenylacetamido)-2,2-dimethyl-3-(1-pivaloyloxymethyl]-tetrazol-5-yl)penam and 6-(2-Phenylacetamido)-2,2-dimethyl-3-(2-[pivaloyloxylmethyl]tetrazol-5-yl)penam | 0.2 µg/mL |

same assay, conditions: Streptococcus pyogenes, read-out: MIC vs. Strep. pyogenes

| Compound | MIC |
| --- | --- |
| CC1(C)S[C@@H]2[C@H](NC(=O)CSc3ccncc3)C(=O)N2[C@H]1c1nnn[nH]1 [2-(4-pyridylthio)acetyl, 6-(2-[4-Pyridylthio]acetamido)-2,2-dimethyl-3-(5-tetrazolyl)penam] | < 0.1 µg/mL |
| CC1(C)S[C@@H]2[C@H](NC(=O)C(C(=O)Oc3ccc4c(c3)CCC4)c3ccccc3)C(=O)N2[C@H]1c1nnn[nH]1 (stereo partly drawn) [2-(5-indanyloxycarbonyl)-2-phenylacetyl, 6-(2-[5-Indanyloxycarbonyl]-2-phenylacetamido)-2,2-dimethyl-3-(5-tetrazolyl)penam] | < 0.1 µg/mL |
| CC1(C)S[C@@H]2[C@H](NC(=O)[C@H](NC(=O)CNS(=O)(=O)c3ccccc3)c3ccccc3)C(=O)N2[C@H]1c1nn[nH]n1 | < 0.1 µg/mL |
| CC1(C)S[C@@H]2[C@H](NC(=O)C(C(=O)O)c3cccs3)C(=O)N2[C@H]1c1nnn[nH]1 (stereo partly drawn) [2-carboxy-2-(2-thienyl)acetyl, 6-(2-Carboxy-2-[2-thienyl]acetamido)-2,2-dimethyl-3-(5-tetrazolyl)penam] | 0.1 µg/mL (≈ 0.245 µM) |
| CC1(C)S[C@@H]2[C@H](NC(=O)[C@H](NC(=O)CNC(=N)c3ccccc3)c3ccccc3)C(=O)N2[C@H]1c1nnn[nH]1 [6-(D-2-[2-(Benzamidino)acetamido]-2-phenylacetamido)-2,2-dimethyl-3-(5-tetrazolyl)penam] | < 0.1 µg/mL |
| CC1(C)S[C@@H]2[C@H](NC(=O)Cc3ccccc3CN)C(=O)N2[C@H]1c1nnn[nH]1 [2-(o-[aminomethyl]phenyl)acetyl, 6-[2-[o-(aminomethyl)phenyl]acetamido]-2,2-dimethyl-3-(5-tetrazolyl)penam] | < 0.1 µg/mL |
| CC1(C)S[C@@H]2[C@H](NC(=O)[C@H](NC(=O)CSC3=NC(=O)CN3)c3ccccc3)C(=O)N2[C@H]1c1nn[nH]n1 | 0.1 µg/mL (≈ 0.189 µM) |
| CC1(C)S[C@@H]2[C@H](NC(=O)Oc3ccccc3)C(=O)N2[C@H]1c1nnn[nH]1 [phenoxycarbonyl] | < 0.1 µg/mL |
| CC1(C)S[C@@H]2[C@H](NC(=O)[C@H](NC(=O)CNC(=O)c3ccc([N+](=O)[O-])cc3)c3ccccc3)C(=O)N2[C@H]1c1nnn[nH]1 | < 0.1 µg/mL |
| CC1(C)S[C@@H]2[C@H](NC(=O)[C@H](NC(=O)CNS(=O)(=O)Cc3ccccc3)c3ccccc3)C(=O)N2[C@H]1c1nn[nH]n1 | < 0.1 µg/mL |
| CC1(C)S[C@@H]2[C@H](NC(=O)[C@H](NC(=O)CN)c3ccc(O)cc3)C(=O)N2[C@H]1c1nnn[nH]1 [6-(D-2-[2-aminoacetamido]-2-[4-hydroxyphenyl]acetamido)-2,2-dimethyl-3-(5-tetrazolyl)penam] | < 0.1 µg/mL |
| CC1(C)S[C@@H]2[C@H](NC(=O)[C@H](NC(N)=O)c3ccccc3)C(=O)N2[C@H]1c1nn[nH]n1 [D-2-ureido-2-phenylacetyl, 6-(D-2-Ureido-2-phenylacetamido)-2,2-dimethyl-3-(5-tetrazolyl)-penam] | 0.1 µg/mL (≈ 0.24 µM) |
| CC1(C)S[C@@H]2[C@H](NC(=O)Cc3cccc(OCCN)c3)C(=O)N2[C@H]1c1nn[nH]n1 [2-(3-[2-aminoethoxy]phenyl)acetyl, 6-(2-[3-(2-Aminoethoxy)phenyl]acetamido)-2,2-dimethyl-3-(5-tetrazolyl)penam] | < 0.1 µg/mL |
| CC1(C)S[C@@H]2[C@H](NC(=O)[C@H](NC(=O)CCNC(=N)c3cccs3)c3ccccc3)C(=O)N2[C@H]1c1nnn[nH]1 | < 0.1 µg/mL |
| CC1(C)S[C@@H]2[C@H](NC(=O)[C@H](NC(=O)NC(=O)c3ccco3)c3ccccc3)C(=O)N2[C@H]1c1nn[nH]n1 [D-2-(3-[2-furoyl]ureido)-2-phenylacetyl, 6-(D-2-[3-(2-Furoyl)ureido]-2-phenylacetamido)-2,2-dimethyl-3-(5-tetrazolyl)penam] | < 0.1 µg/mL |
| CC1(C)S[C@@H]2[C@H](NC(=O)[C@H](NC(=O)c3ccccc3)c3ccccc3)C(=O)N2[C@H]1c1nnn[nH]1 [D-2-(benzamido)-2-phenylacetyl] | < 0.1 µg/mL |
| CC1(C)S[C@@H]2[C@H](NC(=O)[C@H](NC(=O)Cc3ccc([N+](=O)[O-])cc3)c3ccccc3)C(=O)N2[C@H]1c1nn[nH]n1 [6-(D-2-[2-(4-nitrophenyl)acetamido]-2-phenylacetamido)-2,2-dimethyl-3-(5-tetrazolyl)penam] | < 0.1 µg/mL |
| CC1(C)S[C@@H]2[C@H](NC(=O)[C@H](NC(=O)c3ccco3)c3ccccc3)C(=O)N2[C@H]1c1nnn[nH]1 [D-2-(2-furancarboxamido)-2-phenylacetyl] | 0.1 µg/mL (≈ 0.214 µM) |
| CC1(C)S[C@@H]2[C@H](NC(=O)Cc3sccc3CN=[N+]=[N-])C(=O)N2[C@H]1c1nnn[nH]1 [2-(3-azidomethyl-2-thienyl-acetyl, 6-(2-[3-Azidomethyl-2-thienyl]acetamido)-2,2-dimethyl-3-(5-tetrazolyl)penam] | ≤ 0.1 µg/mL |

same assay, conditions: Streptococcus pyogenes; Examples; read-out: MIC against Strep. pyogenes

| Compound | MIC |
| --- | --- |
| CC1(C)S[C@@H]2[C@H](NC(=O)[C@H](NC(=O)Nc3ccccc3)c3ccc(O)cc3)C(=O)N2[C@H]1c1nnn[nH]1 [6-(2-[3-Phenylureido]-2-[p-hydroxyphenyl]acetamido)-2,2-dimethyl-3-(5-tetrazolyl)penam] | < 0.1 µg/mL |

same assay, conditions: Streptococcus pyogenes; Table II; two-fold serial dilution, Brain-Heart Infusion broth, overnight; read-out: MIC vs. Strep. pyogenes

| Compound | MIC |
| --- | --- |
| CC1(C)S[C@@H]2[C@H](NC(=O)C(N)c3ccc(N)cc3)C(=O)N2[C@H]1c1nnn[nH]1 (stereo partly drawn) [2-amino-2-(4-aminophenyl)acetyl] | 0.039 µg/mL (≈ 0.1 µM) |
| CC1(C)S[C@@H]2[C@H](NC(=O)[C@H](NC(=O)CNC(=O)NC(=N)NCc3ccncc3)c3ccccc3)C(=O)N2[C@H]1c1nn[nH]n1 | 0.004 µg/mL (≈ 0.00659 µM) |
| CC1(C)S[C@@H]2[C@H](NC(=O)[C@H](NC(=O)COCC(=O)O)c3ccccc3)C(=O)N2[C@H]1c1nnn[nH]1 [6-(D-2-[Carboxymethoxy]acetamido-2-phenylacetamido)-2,2-dimethyl-3-(5-tetrazolyl)penam] | 0.2 µg/mL (≈ 0.409 µM) |
| CC1(C)S[C@@H]2[C@H](NC(=O)[C@H](NC(=O)CSCc3ccccc3)c3ccccc3)C(=O)N2[C@H]1c1nnn[nH]1 | 0.78 µg/mL (≈ 1.45 µM) |
| CCN=C(NCC)SCC(=O)NC(=O)N[C@@H](C(=O)N[C@@H]1C(=O)N2[C@@H]1SC(C)(C)[C@@H]2c1nn[nH]n1)c1ccccc1 [6-(D-2-[3-(2-(N,N'-diethylguanylthio]acetyl)ureido]-2-phenylacetamido)-2,2-dimethyl-3-(5-tetrazolyl)penam] | 0.004 µg/mL (≈ 0.00679 µM) |
| CC1(C)S[C@@H]2[C@H](NC(=O)[C@H](NC(=O)NC(=O)OCc3ccccc3)c3ccccc3)C(=O)N2[C@H]1c1nn[nH]n1 | 0.004 µg/mL (≈ 0.00726 µM) |
| CC1(C)S[C@@H]2[C@H](NC(=O)[C@H](N)c3ccc(F)cc3)C(=O)N2[C@H]1c1nnn[nH]1 [D-2-amino-2-(p-fluorophenyl)acetyl, 6-(D-2-amino-2-[p-fluorophenyl]acetamido)-2,2-dimethyl-3-(5-tetrazolyl)penam] | 3.12 µg/mL (≈ 7.97 µM) |
| CC1(C)S[C@@H]2[C@H](NC(=O)CSc3ccccc3)C(=O)N2[C@H]1c1nnn[nH]1 [2-(phenylthio)acetyl, 6-(2-[phenylthio]acetamido)-2,2-dimethyl-3-(5-tetrazolyl)penam] | 0.78 µg/mL (≈ 2 µM) |
| CC1(C)S[C@@H]2[C@H](NC(=O)C(N)c3cccc([N+](=O)[O-])c3)C(=O)N2[C@H]1c1nnn[nH]1 (mixture of isomers) [DL-2-amino-2-(m-nitrophenyl)acetyl] | 0.004 µg/mL |
| CC1(C)S[C@@H]2[C@H](NC(=O)CNC(=O)NC(=N)Cc3ccc(Cl)cc3)C(=O)N2[C@H]1c1nnn[nH]1 [6-(2-[3-(2-[p-Chlorophenyl]acetimidoyl)ureido]acetamido)-2,2-dimethyl-3-(5-tetrazolyl)penam] | 100 µg/mL (≈ 203 µM) |
| CC1(C)S[C@@H]2[C@H](NC(=O)[C@H](NC(=O)NC(=N)N)c3ccc(O)cc3)C(=O)N2[C@H]1c1nnn[nH]1 [6-(D-2-[3-guanylureido]-2-[4-hydroxyphenyl]acetamido)-2,2-dimethyl-3-(5-tetrazolyl)-penam] | 0.004 µg/mL (≈ 0.00843 µM) |
| CC1(C)S[C@@H]2[C@H](NC(=O)[C@H](NC(=O)CNC(=N)Cc3ccc(Cl)cc3)c3ccccc3)C(=O)N2[C@H]1c1nnn[nH]1 | 0.2 µg/mL (≈ 0.344 µM) |
| CC1(C)S[C@@H]2[C@H](NC(=O)[C@H](NC(=O)CCNC(=N)c3cc[n+]([O-])cc3)c3ccccc3)C(=O)N2[C@H]1c1nnn[nH]1 | 3.12 µg/mL (≈ 5.53 µM) |
| CC1(C)S[C@@H]2[C@H](NC(=O)[C@H](NC(=O)C(=O)c3ccccc3)c3ccccc3)C(=O)N2[C@H]1c1nnn[nH]1 [D-2-(benzoylformamido)-2-phenylacetyl] | 25 µg/mL (≈ 49.5 µM) |
| CC(=O)C(C(=O)NC1C(=O)N2C(c3nnn[nH]3)C(C)(C)S[C@H]12)c1ccccc1 (stereo partly drawn) [D-2-acetyl-2-phenylacetyl, 6-(2-Acetyl-2-phenylacetamido)-2,2-dimethyl-3-(5-tetrazolyl)penam] | 0.004 µg/mL (≈ 0.00999 µM) |
| CC1(C)S[C@@H]2[C@H](NC(=O)[C@H](NC(=O)CCNC(=N)c3ccccc3)c3ccccc3)C(=O)N2[C@H]1c1nnn[nH]1 | 3.12 µg/mL (≈ 5.7 µM) |
| CC1(C)S[C@@H]2[C@H](NC(=O)[C@H](NC(=S)NC(=O)c3ccccc3)c3ccccc3)C(=O)N2[C@H]1c1nn[nH]n1 [2-(3-benzoylthioureido)-2-phenylacetyl] | 1.56 µg/mL (≈ 2.91 µM) |

same assay, conditions: Streptococcus pyogenes; Table IV; read-out: MIC vs. Strep. pyogenes

| Compound | MIC |
| --- | --- |
| CC1(C)S[C@@H]2[C@H](N=CN3CCCCCC3)C(=O)N2[C@H]1c1nnn[nH]1 [6-([Hexahydro-1-azepinyl]methyleneamino)-2,2-dimethyl-3-(5-tetrazolyl)penam] | 50 µg/mL (≈ 143 µM) |
| CN(C)C=N[C@@H]1C(=O)N2[C@@H]1SC(C)(C)[C@@H]2c1nnn[nH]1 [6-([Dimethylamino]methyleneamino)-2,2-dimethyl-3-(5-tetrazolyl)penam] | 12.5 µg/mL (≈ 42.3 µM) |

same assay, conditions: Table II; two-fold serial dilution, Brain-Heart Infusion broth, overnight

| Compound | MIC vs. Strep. pyogenes |
| --- | --- |
| CC1(C)SC2C(NC(=O)[C@@H](c3ccccc3)S(N)(=O)=O)C(=O)N2C1c1nnn[nH]1 (stereo partly drawn) [2-sulfamoyl-2-phenylacetyl, 6-(D-2-Sulfamoyl-2-phenylacetamido)-2,2-dimethyl-3-(5-tetrazolyl)penam] | < 0.1 µg/mL |

same assay, conditions: Table IV

| Compound | MIC vs. Strep. pyogenes |
| --- | --- |
| 6-(2-Phenylacetamido)-2,2-dimethyl-3-(1-pivaloyloxymethyl]-tetrazol-5-yl)penam and 6-(2-Phenylacetamido)-2,2-dimethyl-3-(2-[pivaloyloxylmethyl]tetrazol-5-yl)penam | 0.2 µg/mL |
